Like-named read-outs stand apart in the source and are kept apart here.
Tests used:
[1] = Oral pharmacokinetics in dogs
[2] = Toxicology of DIO-902 in dogs, oral dosing for 28 days; conditions: oral doses up to 20 mg/kg/day for 28 days
plasma cholesterol = assay: Plasma cholesterol suppression in rats; type: in vivo; conditions: 200 mg drug/kg body weight
testosterone = assay: Testosterone suppression after single dose in rats; type: in vivo
[3] = normal volunteers, 200 mg dose of the racemic mixture, oral; cited from earlier work
hepatic cardiolipin = assay: Measurement of hepatic cardiolipin following 91 days dosing in Beagle dogs; type: in vivo; conditions: male Beagle dogs, vs placebo
Procedure: Male Beagle dogs were treated with empty gelatin capsules (Placebo) or gelatin capsules containing sufficient 2S,4R enantiomer of ketoconazole to provide a dose of 20 mg/kg body weight. After 91 days of therapy, the amount of cardiolipin present in the livers of the dogs was determined. The amount of cardiolipin with fatty acids of the different indicated classes was determined independently. SFA, saturated fatty acids; MUFA, […] fatty acids; PUFA, poly-unsaturated fatty acid; n3, fatty acids in which the first double bond is at C3; n6, fatty acids in which the first double bond is at C6; n9, fatty acids in which the first double bond is at C9.
Male Beagle dogs were treated with empty gelatin capsules (Placebo) or gelatin capsules containing sufficient 2S,4R enantiomer of ketoconazole to provide a dose of 20 mg/kg body weight. After 91 days of therapy, the amount of cardiolipin present in the livers of the dogs was determined. The amount of cardiolipin with fatty acids of the different indicated classes was determined independently. The different classes are arranged according to the proportion that they are found in the placebo treated animals.
The effect of the 2S,4R enantiomer of ketoconazole enantiomers on cardiolipin levels in Beagle dogs was determined. The dogs were approximately 6-7 months of age at the initiation of the experiment and weighed 8-10 kg. To generate the results shown in FIGS. 1 and 2, eight male beagle dogs were used. Four of these dogs were dosed daily with an empty capsule, and four dogs were dosed with a gelatin capsule containing sufficient 2S,4R enantiomer of ketoconazole for each dog to receive 20 mg/kg body weight of the 2S,4R enantiomer of ketoconazole. The capsules were prepared weekly, placed in a labeled pill bottle and stored at 23° C.±3° C. until dispensed for dosing. […] Lipid content of the livers was determined using a combination of high pressure liquid chromatography (HPLC) and mass spectrometry. […]

corticosterone = assay: Serum corticosterone reduction after oral dosing in rats; type: in vivo; conditions: 200 mg drug/kg body weight, within 4 hours of oral dosing
[4] = cited from earlier work
[5] = in vivo, cited from earlier work
[6] = patients with Cushing's syndrome

For `CC(=O)N1CCN(c2ccc(OC[C@@H]3CO[C@@](Cn4ccnc4)(c4ccc(Cl)cc4Cl)O3)cc2)CC1` (relative stereo) [DIO-902, 2S,4R cis-1-acetyl-4-[4-[[2-(2,4-dichlorophenyl)-2-(1H-imidazol-1-ylmethyl)-1,3-dioxolan-4-yl]methoxyl]phenyl]piperazine], the oral availability [1] was “orally available”, the body weight [2] was “reduction in body weight” and the cholesterol [2] was “trend to a decrease in cholesterol”. For the same compound, the food intake [2] was “reduction in food intake”, the “other serum chemistry and hematological parameters” value [2] was “no noted changes” and the plasma cholesterol (plasma cholesterol) was “suppresses plasma cholesterol”. For the same compound, the “time for testosterone levels to return to normal” value (testosterone; 200 mg drug/kg body weight) was ≤ 8 h, the “time to testosterone suppression after dosing” value (testosterone; 200 mg drug/kg body weight) was “within four hours” and the testosterone level (testosterone; single dose 200 mg drug/kg body weight) was 10 % of basal. The maximum plasma concentration [3] was “approximately 3.6 μg/mL”, the “time of maximum plasma concentration” value [3] was 2 h and the “amount of cardiolipin in the livers as a function of the liver wet weight” value (hepatic cardiolipin; 20 mg/kg body weight daily in gelatin capsule) was “increased cardiolipin levels”. For the same compound, the “hepatic cardiolipin by fatty acid carbon chain length and bond number, FIG. 2” value (hepatic cardiolipin; 20 mg/kg) was “able to increase the levels of cardiolipin that contain fatty acids of a wide variety of carbon chain length with different numbers of carbon bonds”, the “hepatic cardiolipin by fatty acid class (SFA, MUFA, PUFA, n3, n6, n9), FIG. 1” value (hepatic cardiolipin; 20 mg/kg) was “able to increase the levels of cardiolipin that contain both saturated and unsaturated fatty acids” and the serum corticosterone level (corticosterone) was 25 % of basal.
In the case of `CC(=O)N1CCN(c2ccc(OCC3COC(Cn4ccnc4)(c4ccc(Cl)cc4Cl)O3)cc2)CC1` (racemic) [racemic ketoconazole, 1-acetyl-4-[4-[[2-(2,4-dichlorophenyl)-2-[(1H-imidazol-1-yl)-methyl]-1,3-dioxolan-4-yl]methoxy]phenyl]piperazine], the cortisol synthesis ([4]; human, in vivo) is given as “inhibits cortisol synthesis”, the plasma cortisol ([4]; human, in vivo) is given as “decrease plasma cortisol” and the “cholesterol levels in humans” value ([4]; humans (Sonino et al. 1991; Gylling et al. 1993)) is given as “lower cholesterol levels”. For the same compound, the blood pressure [4, 6] was “reduces”, the cholesterol [4, 6] was “reduces” and the glucose [4, 6] was “reduces”. The “1,25 dihydroxy Vitamin D” value [5] was “reduces”, the hepatotoxicity [5] was “associated with hepatotoxicity” and the testosterone [5] was “reduces”. The hepatotoxicity ([5]; listed as racemic mixture) was “can cause hepatoxicity”.

— patent US20090298848A1, “Methods and Compositions for Treating Barth Syndrome, Cardiomyopathy, Mitochondrial Diseases and Other Conditions” (CORTENDO INVEST AB,, priority 2006, published 2009)
